From US10188634B2, “3-(3H-imidazo[4,5-C]pyridin-2-yl)-1 H-pyrazolo[4,3-B]pyridines and therapeutic uses thereof” (Samumed, LLC, priority 2015, dated 2019)

What was measured:
[1] = system: Wnt activity (Sp5-Luc reporter, human Sp5 promoter with eight TCF/LEF binding sites) in SW480 colon carcinoma cells; assay: Screening assay for Wnt activity: Sp5-Luc reporter gene assay in SW480 cells; assay type: cell-based; conditions: for inhibition at 10 µM: read-out: percent inhibition at 10 μM (given for EC50 of >10 μM); for EC50: 10-point dose-response starting from 10 μM, overnight incubation
Procedure, shortened: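 Luminescence (BrightGlo) read after overnight 37 °C exposure of Sp5-Luc SW480 reporter cells, 4,000/well in 1% FBS, to compound dosed 1:3 over 10 points from 10 μM with 0.1% DMSO. Values normalized to DMSO-only cells, fitted with variable-slope four-parameter model; where EC50 exceeds 10 μM, % inhibition at 10 μM reported.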

IL-6 in THP-1 cells = assay: Inhibition of IL-6 in LPS-stimulated THP-1 human monocyte cells (HTRF); assay type: cell-based; conditions: IL-6 HTRF; for EC50: 500 ng/mL LPS, 22 hours; for inhibition at 10 µM: LPS, read-out: percent inhibition in brackets (given for EC50 >10 μM)
Procedure, shortened: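 IL-6 was quantified by HTRF ratio after LPS (500 ng/mL, 22 h) stimulation of THP-1 monocytes pretreated 2 h with compound, 10-point 1:3 dilutions from 10 μM, 0.1% DMSO. Cells were held in 1% FBS for 24 h beforehand. Values normalised to DMSO; four-parameter EC50, or % inhibition at 10 μM above that.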

CCCCC(=O)Nc1cncc(-c2ccc3[nH]nc(-c4nc5c(-c6ccccn6)cncc5[nH]4)c3n2)c1 [Compound 159, N-(5-(3-(7-(Pyridin-2-yl)-3H-imidazo[4,5-c]pyridin-2-yl)-1H-pyrazolo[4,3-b]pyridin-5-yl)pyridin-3-yl)pentanamide]
inhibition at 10 µM [1]: 1% | EC50 [1]: > 10 µM | EC50 (IL-6 in THP-1 cells): > 10 µM | inhibition at 10 µM (IL-6 in THP-1 cells): 28.2%

CCC(=O)Nc1cncc(-c2ccc3[nH]nc(-c4nc5c(N6CCCCC6)cncc5[nH]4)c3n2)c1 [Compound 169, N-(5-(3-(7-(Piperidin-1-yl)-3H-imidazo[4,5-c]pyridin-2-yl)-1H-pyrazolo[4,3-b]pyridin-5-yl)pyridin-3-yl)propionamide]
inhibition at 10 µM [1]: 2.3% | EC50 [1]: > 10 µM | EC50 (IL-6 in THP-1 cells): > 10 µM | inhibition at 10 µM (IL-6 in THP-1 cells): 25.6%

CN(C)Cc1cncc(-c2ccc3[nH]nc(-c4nc5c(N6CCCCC6)cncc5[nH]4)c3n2)c1 [Compound 181, N,N-Dimethyl-1-(5-(3-(7-(piperidin-1-yl)-3H-imidazo[4,5-c]pyridin-2-yl)-1H-pyrazolo[4,3-b]pyridin-5-yl)pyridin-3-yl)methanamine]
inhibition at 10 µM [1]: 33.1% | EC50 [1]: > 10 µM | EC50 (IL-6 in THP-1 cells): 6.01 µM

Cc1cn(-c2cncc3[nH]c(-c4n[nH]c5ccc(-c6cncc(NC(=O)CC(C)C)c6)nc45)nc23)cn1 [Compound 198, 3-Methyl-N-(5-(3-(7-(4-methyl-1H-imidazol-1-yl)-3H-imidazo[4,5-c]pyridin-2-yl)-1H-pyrazolo[4,3-b]pyridin-5-yl)pyridin-3-yl)butanamide]
inhibition at 10 µM [1]: 1.8% | EC50 [1]: > 10 µM | EC50 (IL-6 in THP-1 cells): > 10 µM | inhibition at 10 µM (IL-6 in THP-1 cells): 14.5%

Cc1cn(-c2cncc3[nH]c(-c4n[nH]c5ccc(-c6cncc(NC(=O)C(C)(C)C)c6)nc45)nc23)cn1 [Compound 204, N-(5-(3-(7-(4-methyl-1H-imidazol-1-yl)-3H-imidazo[4,5-c]pyridin-2-yl)-1H-pyrazolo[4,3-b]pyridin-5-yl)pyridin-3-yl)pivalamide]
inhibition at 10 µM [1]: 0% | EC50 [1]: > 10 µM | EC50 (IL-6 in THP-1 cells): > 10 µM | inhibition at 10 µM (IL-6 in THP-1 cells): 24.5%

Cc1cn(-c2cncc3[nH]c(-c4n[nH]c5ccc(-c6cncc(CN7CCCC7)c6)nc45)nc23)cn1 [Compound 210, 3-(7-(4-Methyl-1H-imidazol-1-yl)-3H-imidazo[4,5-c]pyridin-2-yl)-5-(5-(pyrrolidin-1-ylmethyl)pyridin-3-yl)-1H-pyrazolo[4,3-b]pyridine]
inhibition at 10 µM [1]: 3.5% | EC50 [1]: > 10 µM | EC50 (IL-6 in THP-1 cells): > 10 µM | inhibition at 10 µM (IL-6 in THP-1 cells): 13%

Cc1cn(-c2cncc3[nH]c(-c4n[nH]c5ccc(-c6cncc(NC(=O)C7CCC7)c6)nc45)nc23)cn1 [Compound 217, N-(5-(3-(7-(4-Methyl-1H-imidazol-1-yl)-3H-imidazo[4,5-c]pyridin-2-yl)-1H-pyrazolo[4,3-b]pyridin-5-yl)pyridin-3-yl)cyclobutanecarboxamide]
inhibition at 10 µM [1]: 6.7% | EC50 [1]: > 10 µM | EC50 (IL-6 in THP-1 cells): > 10 µM | inhibition at 10 µM (IL-6 in THP-1 cells): 36.5%

CN1CCN(c2cncc3[nH]c(-c4n[nH]c5ccc(-c6cncc(N)c6)nc45)nc23)CC1 [Compound 227, 5-(3-(7-(4-Methylpiperazin-1-yl)-3H-imidazo[4,5-c]pyridin-2-yl)-1H-pyrazolo[4,3-b]pyridin-5-yl)pyridin-3-amine]
inhibition at 10 µM [1]: 16.3% | EC50 [1]: > 10 µM | EC50 (IL-6 in THP-1 cells): > 10 µM | inhibition at 10 µM (IL-6 in THP-1 cells): 38%

CC(C)C(=O)Nc1cncc(-c2ccc3[nH]nc(-c4nc5c(N6CCN(C)CC6)cncc5[nH]4)c3n2)c1 [Compound 233, N-(5-(3-(7-(4-Methylpiperazin-1-yl)-3H-imidazo[4,5-c]pyridin-2-yl)-1H-pyrazolo[4,3-b]pyridin-5-yl)pyridin-3-yl)isobutyramide]
inhibition at 10 µM [1]: 6.2% | EC50 [1]: > 10 µM | EC50 (IL-6 in THP-1 cells): > 10 µM | inhibition at 10 µM (IL-6 in THP-1 cells): 36.7%

CN1CCN(c2cncc3[nH]c(-c4n[nH]c5ccc(-c6cncc(NC(=O)C7CCCC7)c6)nc45)nc23)CC1 [Compound 246, N-(5-(3-(7-(4-Methylpiperazin-1-yl)-3H-imidazo[4,5-c]pyridin-2-yl)-1H-pyrazolo[4,3-b]pyridin-5-yl)pyridin-3-yl)cyclopentanecarboxamide]
inhibition at 10 µM [1]: 3.9% | EC50 [1]: > 10 µM | EC50 (IL-6 in THP-1 cells): > 10 µM | inhibition at 10 µM (IL-6 in THP-1 cells): 0%

CN1CCN(c2cncc3[nH]c(-c4n[nH]c5ccc(-c6cncnc6)nc45)nc23)CC1 [Compound 251, 3-(7-(4-Methylpiperazin-1-yl)-3H-imidazo[4,5-c]pyridin-2-yl)-5-(pyrimidin-5-yl)-1H-pyrazolo[4,3-b]pyridine]
inhibition at 10 µM [1]: 14.4% | EC50 [1]: > 10 µM | EC50 (IL-6 in THP-1 cells): > 10 µM | inhibition at 10 µM (IL-6 in THP-1 cells): 31.8%

O=C(Nc1cncc(-c2ccc3[nH]nc(-c4nc5c(-c6ccsc6)cncc5[nH]4)c3n2)c1)c1ccccc1 [Compound 263, N-(5-(3-(7-(Thiophen-3-yl)-3H-imidazo[4,5-c]pyridin-2-yl)-1H-pyrazolo[4,3-b]pyridin-5-yl)pyridin-3-yl)benzamide]
inhibition at 10 µM [1]: 7.6% | EC50 [1]: > 10 µM | EC50 (IL-6 in THP-1 cells): > 10 µM | inhibition at 10 µM (IL-6 in THP-1 cells): 36.3%

CCNCc1cncc(-c2ccc3[nH]nc(-c4nc5c(-c6ccoc6)cncc5[nH]4)c3n2)c1 [Compound 286, N-((5-(3-(7-(Furan-3-yl)-3H-imidazo[4,5-c]pyridin-2-yl)-1H-pyrazolo[4,3-b]pyridin-5-yl)pyridin-3-yl)methyl)ethanamine]
inhibition at 10 µM [1]: 37.4% | EC50 [1]: > 10 µM | EC50 (IL-6 in THP-1 cells): > 10 µM | inhibition at 10 µM (IL-6 in THP-1 cells): 14.5%

CCCCC(=O)Nc1cncc(-c2ccc3[nH]nc(-c4nc5c(-c6ccoc6)cncc5[nH]4)c3n2)c1 [Compound 299, N-(5-(3-(7-(Furan-3-yl)-3H-imidazo[4,5-c]pyridin-2-yl)-1H-pyrazolo[4,3-b]pyridin-5-yl)pyridin-3-yl)pentanamide]
inhibition at 10 µM [1]: 14.7% | EC50 [1]: > 10 µM | EC50 (IL-6 in THP-1 cells): > 10 µM | inhibition at 10 µM (IL-6 in THP-1 cells): 48.6%

CCC(=O)Nc1cncc(-c2ccc3[nH]nc(-c4nc5c(-c6cccs6)cncc5[nH]4)c3n2)c1 [Compound 309, N-(5-(3-(7-(Thiophen-2-yl)-3H-imidazo[4,5-c]pyridin-2-yl)-1H-pyrazolo[4,3-b]pyridin-5-yl)pyridin-3-yl)propionamide]
inhibition at 10 µM [1]: 2.4% | EC50 [1]: > 10 µM | EC50 (IL-6 in THP-1 cells): > 10 µM | inhibition at 10 µM (IL-6 in THP-1 cells): 31.2%

CN(C)Cc1cncc(-c2ccc3[nH]nc(-c4nc5c(-c6cccs6)cncc5[nH]4)c3n2)c1 [Compound 321, N,N-dimethyl-1-(5-(3-(7-(thiophen-2-yl)-3H-imidazo[4,5-c]pyridin-2-yl)-1H-pyrazolo[4,3-b]pyridin-5-yl)pyridin-3-yl)methanamine]
inhibition at 10 µM [1]: 19.2% | EC50 [1]: > 10 µM | EC50 (IL-6 in THP-1 cells): > 10 µM | inhibition at 10 µM (IL-6 in THP-1 cells): 22.2%

c1csc(-c2cncc3[nH]c(-c4n[nH]c5ccc(-c6ccncc6)nc45)nc23)c1 [Compound 326, 5-(Pyridin-4-yl)-3-(7-(thiophen-2-yl)-3H-imidazo[4,5-c]pyridin-2-yl)-1H-pyrazolo[4,3-b]pyridine]
inhibition at 10 µM [1]: 12.7% | EC50 [1]: > 10 µM | EC50 (IL-6 in THP-1 cells): > 10 µM | inhibition at 10 µM (IL-6 in THP-1 cells): 22.3%

O=C(Nc1cncc(-c2ccc3[nH]nc(-c4nc5c(-c6cccs6)cncc5[nH]4)c3n2)c1)C1CC1 [Compound 328, N-(5-(3-(7-(Thiophen-2-yl)-3H-imidazo[4,5-c]pyridin-2-yl)-1H-pyrazolo[4,3-b]pyridin-5-yl)pyridin-3-yl)cyclopropanecarboxamide]
inhibition at 10 µM [1]: 3.7% | EC50 [1]: > 10 µM | EC50 (IL-6 in THP-1 cells): > 10 µM | inhibition at 10 µM (IL-6 in THP-1 cells): 40.6%

Cc1ccc(-c2cncc3[nH]c(-c4n[nH]c5ccc(-c6cncc(NC(=O)C(C)C)c6)nc45)nc23)s1 [Compound 373, N-(5-(3-(7-(5-Methylthiophen-2-yl)-3H-imidazo[4,5-c]pyridin-2-yl)-1H-pyrazolo[4,3-b]pyridin-5-yl)pyridin-3-yl)isobutyramide]
inhibition at 10 µM [1]: 16.1% | EC50 [1]: > 10 µM | EC50 (IL-6 in THP-1 cells): > 10 µM | inhibition at 10 µM (IL-6 in THP-1 cells): 41.3%

Cc1ccc(-c2cncc3[nH]c(-c4n[nH]c5ccc(-c6cncc(NC(=O)C7CCCC7)c6)nc45)nc23)s1 [Compound 386, N-(5-(3-(7-(5-Methylthiophen-2-yl)-3H-imidazo[4,5-c]pyridin-2-yl)-1H-pyrazolo[4,3-b]pyridin-5-yl)pyridin-3-yl)cyclopentanecarboxamide]
inhibition at 10 µM [1]: 8.7% | EC50 [1]: > 10 µM | EC50 (IL-6 in THP-1 cells): 0.351 µM

CCNCc1cncc(-c2ccc3[nH]nc(-c4nc5c(-c6cc(F)cc(NCCN(C)C)c6)cncc5[nH]4)c3n2)c1 [Compound 426, N^1-(3-(2-(5-(5-((Ethylamino)methyl)pyridin-3-yl)-1H-pyrazolo[4,3-b]pyridin-3-yl)-3H-imidazo[4,5-c]pyridin-7-yl)-5-fluorophenyl)-N^2,N^2-dimethylethane-1,2-diamine]
inhibition at 10 µM [1]: 8.8% | EC50 [1]: > 10 µM | EC50 (IL-6 in THP-1 cells): 8.05 µM

CCCCC(=O)Nc1cncc(-c2ccc3[nH]nc(-c4nc5c(-c6cc(F)cc(NCCN(C)C)c6)cncc5[nH]4)c3n2)c1 [Compound 439, N-(5-(3-(7-(3-((2-(Dimethylamino)ethyl)amino)-5-fluorophenyl)-3H-imidazo[4,5-c]pyridin-2-yl)-1H-pyrazolo[4,3-b]pyridin-5-yl)pyridin-3-yl)pentanamide]
inhibition at 10 µM [1]: 3.1% | EC50 [1]: > 10 µM | EC50 (IL-6 in THP-1 cells): > 10 µM | inhibition at 10 µM (IL-6 in THP-1 cells): 31.5%
